The first assay has as its system mice (CF-1 strain). In words: Maximal ElectroShock (MES) test for anticonvulsants. Type of assay: in vivo. To be noted: dosed orally, Hour 1, elimination of hindlimb tonic extension. Here is the method:
The therapeutic use of the compounds claimed in the present invention as anticonvulsants has been proven by the “Maximal ElectroShock (MES)” test, which is a well-established pharmacological screening method for anticonvulsants against partial seizures, and the results are presented in Table 1. The procedure employed in the MES test for anticonvulsants follows. The compound dosing, solutions were prepared in saline, and the subject, namely, mice (CF-1 strain), were dosed orally. After the designated number of hours, maximal electroshock was induced in mice via corneal electrodes using IITC Life Science model 11A Shocker at 50 mA-60 Hz for […]. Upon inducing, maximal electroshock, the elimination of hindlimb tonic extension was considered as providing evidence of the protection by an anticonvulsant. Median efficacy dose (ED50) levels were determined using three different dose levels with at least 6 mice in each group.
For orientation: The maximal electroshock test induces tonic seizures with an electrical stimulus.
Turning to “(R)-(2-(2-Chlorophenyl)-2-hydroxyethyl)oxocarboxamide [Entry 3]”, the “ED50” value is 50.0 mg/kg.
`NC(=O)OCC(OC(N)=O)c1ccccc1Cl` (stereo not drawn) [Entry 5, (DL)-(2-(2-Chlorophenyl)-2-carbamoyloxyethyl)oxocarboxamide]: the “ED50” value stood at 25 mg/kg.
As for `NC(=O)OCC(OC(N)=O)c1ccc(Cl)cc1` (stereo not drawn) [Entry 8, (DL)-(2-(4-Chlorophenyl)-2-carbamoyloxyethyl)oxocarboxamide], the “ED50” value was determined as 29.1 mg/kg.
Still for that read-out and setting: the same measure for “(S)-(2-(2-chlorophenyl)-2-hydroxyethyl)oxocarboxamide [Entry 2]”: 13.0 mg/kg; for “(R)-(2-(2,6-Dichlorophenyl)-carbamoyloxyethyl)oxocarboxamide [Entry 12]”: 10.7 mg/kg; for “(S)-(2-(2-Chlorophenyl)-2-carbamoyloxyethyl)oxocarboxamide [Entry 7]”: 22.0 mg/kg.
Same read-out and setting: the same measure for “(R)-(2-(2-Chlorophenyl)-2-carbamoyloxyethyl)oxocarboxamide [Entry 6]”: 16.0 mg/kg; for `NC(=O)OCC(OC(N)=O)c1c(Cl)cccc1Cl` (stereo not drawn) [Entry 11, (DL)-(2-(2,6-dichlorophenyl)-2-carbamoyloxyethyl)-oxocarboxamide]: 7.4 mg/kg; for `NC(=O)OCC(O)c1ccccc1Cl` (stereo not drawn) [Entry 1, (DL)-(2-(2-chlorophenyl)-2-hydroxyethyl)oxocarboxamide]: 33.7 mg/kg.
The same measure, in the same setting: the same measure for “(R)-(2-(4-Chlorophenyl)-2-carbamoyloxyethyl)oxocarboxamide [Entry 9]”: 26.2 mg/kg.

The same assay, now with this note: dosed orally, Hour 4, elimination of hindlimb tonic extension.
As for `O=C(NCc1ccccc1)OC[C@H](OC(=O)NCc1ccccc1)c1ccccc1Cl` [Entry 17, (R)-N-Benzyl(2-(2-chlorophenyl)-2-N-benzylcarbamoyloxyethyl)-oxocarboxamide], the 50% effective dose (ED50) is over 20 mg/kg.
For `CNC(=O)OC[C@H](OC(=O)NC)c1ccccc1Cl` [Entry 14], the “ED50” value is over 20 mg/kg.
Consider “(S)-(2-(4-Chlorophenyl)-2-carbamoyloxyethyl)oxocarboxamide [Entry 10]”, for which the “ED50” value amounted to 21.5 mg/kg.
Turning to `O=C(Nc1ccccc1)OC[C@H](OC(=O)Nc1ccccc1)c1ccccc1Cl` [Entry 16, (R)-N-Phenyl(2-(2-chlorophenyl)-2-N-phenylcarbamoyloxyethyl)-oxocarboxamide], the “ED50” value was over 20 mg/kg.
On the same count and under the same terms, the same measure for `NC(=O)OC[C@H](OC(N)=O)c1ccccc1Cl` [Entry 13, (R)-(2-(2-Chlorophenyl)-2-N-carbamoyloxyethyl)oxocarboxamide]: 8.9 mg/kg.

For the next assay, the system named is mice (CF-1 strain). Described as above. The following applies: ip, Hour 1, elimination of hindlimb tonic extension. In kind it is in vivo.
Take `CC(C)NC(=O)OC[C@H](OC(=O)NC(C)C)c1ccccc1Cl` [Entry 15]: the “ED50 (mg/Kg)” value is “≈10 (ip) mg/Kg”.

In general, ED50 refers to the dose that gives a 50% effect, or the effect in half of the subjects. Read a low ED50 as greater potency.

(Values after patent US20010034365A1, “Halogen substituted carbamate compounds from 2-phenyl-1,2-ethanediol” (priority 1996, published 2001).)
